Assay results as given in ChEMBL document CHEMBL5236640, “SAR study of 1,2-benzisothiazole dioxide compounds that agonize HIF-2 stabilization and EPO production” (Bioorg Med Chem, 2023).
Calls of active or inactive are those of the source. The rule behind the calls is not given here.

Key:
[1] = biological target: Endothelial PAS domain-containing protein 1 (Homo sapiens) (UniProt Q99814); test: Agonist activity at human HIF-2alpha expressed in human 786-0 cells assessed as increase in NDRG1 transcription level at 20 uM incubated for 24 hrs by RT-PCR analysis relative to control; type: cell-based; conditions: filed as agonist
[2] = biological target: Endothelial PAS domain-containing protein 1 (Homo sapiens) (UniProt Q99814); test: Agonist activity at human HIF-2alpha expressed in human 786-0 cells assessed as increase in PGK1 transcription level at 20 uM incubated for 24 hrs by RT-PCR analysis relative to control; type: cell-based; conditions: filed as agonist
[3] = biological target: Endothelial PAS domain-containing protein 1 (Homo sapiens) (UniProt Q99814); test: Agonist activity at human HIF-2alpha expressed in human 786-0 cells assessed as increase in VEGFA transcription level at 20 uM incubated for 24 hrs by RT-PCR analysis relative to control; type: cell-based; conditions: filed as agonist
[4] = biological target: Aryl hydrocarbon receptor nuclear translocator/Endothelial PAS domain-containing protein 1 (Homo sapiens) (UniProt P27540+Q99814); conditions: filed as agonist, dose 10.0 µM
[5] = biological target: Endothelial PAS domain-containing protein 1 (Homo sapiens) (UniProt Q99814); test: Synergistic agonist activity at human HIF-2alpha expressed in human Hep3B cells assessed as induction of EPO transcription at 5 uM pretreated with FG4592 followed by compound addition and measured after 12 hrs by qRT-PCR analysis; type: cell-based; conditions: filed as agonist
[6] = biological target: Endothelial PAS domain-containing protein 1 (Homo sapiens) (UniProt Q99814); test: Agonist activity at human HIF-2alpha expressed in human 786-0 cells assessed as increase in GLUT1 transcription level at 20 uM incubated for 24 hrs by RT-PCR analysis relative to control; type: cell-based; conditions: filed as agonist
[7] = biological target: Endothelial PAS domain-containing protein 1 (Homo sapiens) (UniProt Q99814); test: Agonist activity at human HIF-2alpha expressed in human 786-0 cells assessed as increase in VEGFA transcription level at 2 uM incubated for 24 hrs by RT-PCR analysis relative to control; type: cell-based; conditions: filed as agonist
[8] = biological target: Endothelial PAS domain-containing protein 1 (Homo sapiens) (UniProt Q99814); test: Agonist activity at human HIF-2alpha expressed in human 786-0 cells assessed as increase in VEGFA transcription level at 0.2 uM incubated for 24 hrs by RT-PCR analysis relative to control; type: cell-based; conditions: filed as agonist
[9] = biological target: Endothelial PAS domain-containing protein 1 (Homo sapiens) (UniProt Q99814); test: Agonist activity at human HIF-2alpha expressed in human 786-0 cells assessed as increase in NDRG1 transcription level at 2 uM incubated for 24 hrs by RT-PCR analysis relative to control; type: cell-based; conditions: filed as agonist
[10] = biological target: Endothelial PAS domain-containing protein 1 (Homo sapiens) (UniProt Q99814); test: Agonist activity at human HIF-2alpha expressed in human 786-0 cells assessed as increase in NDRG1 transcription level at 0.2 uM incubated for 24 hrs by RT-PCR analysis relative to control; type: cell-based; conditions: filed as agonist

Sequence of Aryl hydrocarbon receptor nuclear translocator/Endothelial PAS domain-containing protein 1 (Homo sapiens) (P27540 2-789 limits assumed): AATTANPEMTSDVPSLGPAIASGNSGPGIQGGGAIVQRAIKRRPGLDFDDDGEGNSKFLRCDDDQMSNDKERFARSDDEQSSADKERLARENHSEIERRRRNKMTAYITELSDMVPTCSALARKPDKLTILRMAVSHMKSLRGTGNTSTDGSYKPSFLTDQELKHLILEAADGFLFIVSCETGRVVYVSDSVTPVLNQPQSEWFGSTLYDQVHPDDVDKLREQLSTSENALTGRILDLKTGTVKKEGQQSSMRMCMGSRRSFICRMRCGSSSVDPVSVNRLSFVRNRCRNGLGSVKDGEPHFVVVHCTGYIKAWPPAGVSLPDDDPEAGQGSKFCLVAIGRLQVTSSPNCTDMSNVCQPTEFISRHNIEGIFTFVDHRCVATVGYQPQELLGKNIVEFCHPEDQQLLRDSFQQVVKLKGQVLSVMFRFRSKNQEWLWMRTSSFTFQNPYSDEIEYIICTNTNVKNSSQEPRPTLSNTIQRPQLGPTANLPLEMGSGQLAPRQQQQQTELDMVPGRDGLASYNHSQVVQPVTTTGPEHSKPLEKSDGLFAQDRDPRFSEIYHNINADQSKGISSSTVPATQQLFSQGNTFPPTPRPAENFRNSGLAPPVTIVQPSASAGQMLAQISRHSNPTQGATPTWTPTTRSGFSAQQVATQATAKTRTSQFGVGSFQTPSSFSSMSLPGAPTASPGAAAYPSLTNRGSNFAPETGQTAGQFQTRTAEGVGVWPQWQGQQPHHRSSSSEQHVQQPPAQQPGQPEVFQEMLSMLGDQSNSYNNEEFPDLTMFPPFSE
Sequence of Aryl hydrocarbon receptor nuclear translocator/Endothelial PAS domain-containing protein 1 (Homo sapiens) (Q99814 whole entry partner, the tested form may be a part): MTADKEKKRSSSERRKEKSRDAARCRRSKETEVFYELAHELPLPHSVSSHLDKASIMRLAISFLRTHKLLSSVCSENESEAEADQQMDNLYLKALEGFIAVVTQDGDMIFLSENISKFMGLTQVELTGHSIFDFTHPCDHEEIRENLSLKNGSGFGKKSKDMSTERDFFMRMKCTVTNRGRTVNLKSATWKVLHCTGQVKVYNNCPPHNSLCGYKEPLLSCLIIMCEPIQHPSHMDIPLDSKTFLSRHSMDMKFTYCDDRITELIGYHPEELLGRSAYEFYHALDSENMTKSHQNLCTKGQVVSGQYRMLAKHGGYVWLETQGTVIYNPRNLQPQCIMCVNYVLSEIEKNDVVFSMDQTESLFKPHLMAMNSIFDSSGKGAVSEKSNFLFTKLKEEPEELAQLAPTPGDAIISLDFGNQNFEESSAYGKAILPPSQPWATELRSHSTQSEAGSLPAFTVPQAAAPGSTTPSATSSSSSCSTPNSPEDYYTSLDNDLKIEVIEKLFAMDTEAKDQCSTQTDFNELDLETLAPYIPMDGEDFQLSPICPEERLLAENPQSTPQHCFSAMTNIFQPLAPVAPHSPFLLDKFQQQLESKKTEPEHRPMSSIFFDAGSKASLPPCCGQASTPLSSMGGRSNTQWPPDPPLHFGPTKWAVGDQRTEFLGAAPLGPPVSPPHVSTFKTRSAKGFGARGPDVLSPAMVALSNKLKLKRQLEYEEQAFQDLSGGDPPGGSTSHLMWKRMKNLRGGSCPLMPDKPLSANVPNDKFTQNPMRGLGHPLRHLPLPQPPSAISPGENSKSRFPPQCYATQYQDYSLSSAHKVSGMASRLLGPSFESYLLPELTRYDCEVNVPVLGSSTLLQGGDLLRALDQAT
Sequence of Endothelial PAS domain-containing protein 1 (Homo sapiens) (Q99814 whole entry, the tested form may be a part): as the sequence (Q99814 whole entry partner, the tested form may be a part) above

Row | Structure (SMILES) | Activity [1] [%] | Activity [2] [%] | Activity [3] [%] | ΔTm [4] [°C] | Activity [5] | further results
1 | O=C(O)c1cc(NC2=NS(=O)(=O)c3ccccc32)cc(C(=O)O)c1 |  |  |  | 0.74 | Active | 
2 | O=S1(=O)N=C(Nc2cccc(F)c2)c2ccccc21 |  |  |  | 0.17 |  | 
3 | CS(=O)(=O)c1cc(NC2=NS(=O)(=O)c3ccccc32)cc(S(C)(=O)=O)c1 |  |  |  | 0 |  | 
4 | COC(=O)c1cc(NC2=NS(=O)(=O)c3ccccc32)cc(C(=O)OC)c1 |  |  |  | 0.02 |  | 
5 | N#Cc1cccc(NC2=NS(=O)(=O)c3ccccc32)c1 |  |  |  | 0.07 |  | 
6 | O=S1(=O)N=C(Nc2ccccc2F)c2ccccc21 |  |  |  | 0.22 |  | 
7 | O=S1(=O)N=C(Nc2cc(F)ccc2F)c2ccccc21 |  |  |  | 0.07 |  | 
8 | COc1cc(NC2=NS(=O)(=O)c3ccccc32)cc(OC)c1 |  |  |  | 0 | Active | 
9 | O=S1(=O)N=C(Nc2cc(F)cc(F)c2)c2ccc(Br)cc21 |  |  |  | -0.06 |  | 
10 | CC(=O)c1cccc(NC2=NS(=O)(=O)c3ccccc32)c1 |  |  |  | -0.13 |  | 
11 | COC(=O)c1cc(C#N)cc(NC2=NS(=O)(=O)c3ccccc32)c1 |  |  |  | 1.28 | Active | 
12 | O=S1(=O)N=C(Nc2ccc(F)cc2)c2ccccc21 |  |  |  | 0.3 |  | 
13 | O=S1(=O)N=C(Nc2ccc(F)cc2F)c2ccccc21 |  |  |  | 0.14 |  | 
14 | O=S1(=O)N=C(Nc2ccccc2)c2ccccc21 | 126 | 90 | 140 | 0.02 |  | Activity [6]: 96.3%
15 | O=S1(=O)N=C(Nc2ccc(F)c(F)c2)c2ccccc21 |  |  |  | 0.29 | Active | 
16 | O=S1(=O)N=C(Nc2cccc(F)c2F)c2ccccc21 |  |  |  | -0.15 |  | 
17 | O=S1(=O)N=C(Nc2cc(F)cc(F)c2)c2cc(Br)ccc21 |  |  |  | 0.37 | Active | 

Further lines, with some results ahead:

Row | Activity [1] [%] | Activity [2] [%] | Activity [3] [%] | ΔTm [4] [°C] | Activity [5] | Structure (SMILES) | further results
18 | 96.6 | 97 | 124 | 0.44 | Active | CN(C1=NS(=O)(=O)c2ccccc21)c1cc(C(F)(F)F)cc(C(F)(F)F)c1 | 
19 |  |  |  | -0.29 |  | COc1ccc2c(c1)C(Nc1cc(C(F)(F)F)cc(C(F)(F)F)c1)=NS2(=O)=O | 
20 | 92.1 | 62 | 102 | 0.1 |  | FC(F)(F)c1cc(Nc2csc3ccccc23)cc(C(F)(F)F)c1 | Activity [6]: 87.4%
21 |  |  |  | 0.07 | Active | O=S1(=O)N=C(Nc2cc(C(F)(F)F)cc(C(F)(F)F)c2)c2ccc(Br)cc21 | 
22 | 272 | 55 | 161 | 0.89 | Active | O=S1(=O)N=C(Nc2cc(C(F)(F)F)cc(C(F)(F)F)c2)c2ccccc21 | Activity [6]: 132%
23 | 97.6 | 124 | 105 | 0.07 | Active | O=S1(=O)N=C(Oc2cc(C(F)(F)F)cc(C(F)(F)F)c2)c2ccccc21 | 
24 | 89.4 | 102 | 77.9 | 0.74 | Active | O=S1(=O)N=C(Nc2cccc(C(F)(F)F)c2)c2ccccc21 | Activity [6]: 80.9%
25 |  |  |  | -0.14 |  | O=S1(=O)N=C(Nc2cc(C(F)(F)F)cc(C(F)(F)F)c2)c2cc(F)ccc21 | 
26 |  |  |  | 0.83 | Active | N#Cc1ccc2c(c1)C(Nc1cc(C(F)(F)F)cc(C(F)(F)F)c1)=NS2(=O)=O | 
27 | 95.1 | 90 | 85.7 | 0.44 | Active | O=S1(=O)N=C(Nc2ccc(C(F)(F)F)cc2)c2ccccc21 | Activity [6]: 76.8%
28 |  |  |  | -0.1 |  | O=S1(=O)N=C(Nc2cc(C(F)(F)F)cc(C(F)(F)F)c2)c2cc(Cl)ccc21 | 
29 |  |  |  | 0.96 | Active | N#Cc1cc(NC2=NS(=O)(=O)c3ccccc32)cc(C(F)(F)F)c1 | 
30 | 87.4 | 127 | 111 | 0.17 |  | [O-][s+]1cc(Nc2cc(C(F)(F)F)cc(C(F)(F)F)c2)c2ccccc21 (stereo unspecified) | Activity [6]: 108%
31 | 214 | 72 | 146 | 0.55 | Active | O=S1(=O)N=C(Nc2cc(F)cc(F)c2)c2ccccc21 | Activity [6]: 185%
32 |  |  |  | 0.44 | Active | O=S1(=O)C=C(Nc2cc(C(F)(F)F)cc(C(F)(F)F)c2)c2ccccc21 | 
33 | 432 | 117 | 265 | 0.87 | Active | O=S1(=O)N=C(Nc2cc(C(F)(F)F)cc(C(F)(F)F)c2)c2cc(Br)ccc21 | Activity [7]: 116%; Activity [8]: 93.3%; Activity [6]: 218%; Activity [9]: 110%; Activity [10]: 88%
